This note sets out measurements from patent US20130317029A1 (PORTOLA PHARMACEUTICALS, INC., priority 2010, published 2013).

What is called IC50 is the concentration that inhibits the measured activity by half.

Structures are written as SMILES. A value given as a limit tells only on which side of the number the result lay.

In the assay the target is T1, full length active recombinant SYK enzyme (Homo sapiens, UniProt P43405).
T1 construct: full length active recombinant SYK enzyme (Millipore, Calif.); purchased Millipore
The assay is described as follows: Inhibition of Syk tyrosine phosphorylation activity (LANCE TR-FRET kinase assay). Type of assay: biochemical. From the text:
This example illustrates methods for evaluating the compounds of the invention, along with results obtained for such assays. The in vitro and in vivo human Syk activities of the inventive compounds can be determined by various procedures known in the art, such as a test for their ability to inhibit the activity of human plasma Syk. […] The IC50 value is the concentration (in nM) of the compound required to provide 50% inhibition of human Syk proteolytic activity.
Potency of candidate molecules for inhibiting Syk tyrosine phosphorylation activity is assessed by measuring the ability of a test compound to inhibit Syk-mediated tyrosine phosphorylation of a Syk-specific substrate.
SYK tyrosine phosphorylation activity is measured using the LANCE™ Technology developed by Perkin Elmer Life and Analytical Sciences (Boston, Mass.). LANCE™ refers to homogeneous time resolved fluorometry applications using techniques such as time-resolved fluorescence resonance energy transfer assay (TR-FRET) (see generally for procedures in Perkin Elmer Application Note—How to Optimize a Tyrosine Kinase Assay Using Time Resolved Fluorescence-Based LANCE Detection, wwww.perkinelmer.com/lifesciences). The assay principle involves detection of a phosphorylated substrate using energy transfer from a phosphospecific europium-labeled antibody to streptavidin-allophycocyanin as an acceptor.
To test the ability of candidate molecules to inhibit SYK tyrosine phosphorylation activity, molecules are reconstituted in 30% DMSO and serially diluted 1:3 with the final dilution containing DMSO in the absence of the candidate molecule. The final DMSO concentration in the assay is 3%. Kinase assays are performed as a two part reaction. The first reaction is a kinase reaction and which comprises of a candidate molecule, full length active recombinant SYK enzyme (Millipore, Calif.) and biotin-labeled SYK-specific substrate biotin-[…]-OH. The second reaction involves termination of the kinase reaction and the simultaneous addition of the detection reagents-europium-labeled anti-phosphotyrosine reagent (Eu-W1024-PY100, Perkin Elmer, Boston, Mass.) and Streptavidin-Allophycocyanin detection reagent (SA-APC, Prozyme, Calif.). The kinase reaction is performed in a black U-bottom 96-well microtitre plate. The final reaction volume is 50 μL and contains a final concentration of 1 nM active SYK enzyme, 550 nM SYK-substrate, and 100 μM ATP diluted in a buffer containing 50 mM Tris pH 7.5, 5 mM MgCl2, and 1 mM DTT. The reaction is allowed to proceed for 1 hour at room temperature. The quench buffer contains 100 mM Tris pH 7.5, 300 mM NaCl2, 20 mM EDTA, 0.02% Brij35, and 0.5% BSA. The detection reagents are added to the reaction mixture at the following dilutions-1:500 for Eu-W1024-PY100 and 1:250 for SA-APC. The kinase reaction is terminated by the addition of 50 μL quench buffer containing the detection reagents. The detection is allowed to proceed for 1 hr at room temperature. Detection of the phosphorlated substrate in the absence and presence of inhibitors is measured in the TR-FRET instrument, Analyst HT (Molecular Probes, Sunnyvale, Calif.) and the condition for measurements are set up using CriterionHost Release 2.0 (Molecular Probes, Sunnyvale, Calif.). The settings used are a follows: excitation 360 nm, emission 665-7.5 nm, beam splitter 350 nm 50/50, flash 100 pulses, delay 60 us, integration 400 us, z-height 2 mm. Inhibition of SYK-tyrosine kinase activity is calculated as the maximum response observed in the presence of inhibitor, compared to that in the absence of inhibitor. IC50s were derived by non-linear regression analysis.
A general note: Time-resolved FRET reads energy transfer from a long-lived donor to a nearby acceptor.
Consider `Cc1cc(C)cc(Nc2nc(N[C@@H](C(N)=O)C(C)C)[nH]c(=O)c2C(N)=O)c1` [Example 2, (R)-2-(1-amino-3-methyl-1-oxobutan-2-ylamino)-4-(3,5-dimethylphenylamino)-6-oxo-1,6-dihydropyrimidine-5-carboxamide], for which the IC50 was in the range of 1 to 10 nM.

As for `COc1ccc(Nc2nc(N[C@H](CC(C)C)C(N)=O)[nH]c(=O)c2C(N)=O)cc1` [Example 89, (R)-2-(1-amino-4-methyl-1-oxopentan-2-ylamino)-4-(4-methoxyphenylamino)-6-oxo-1,6-dihydropyrimidine-5-carboxamide], the IC50 fell in the range of 1 to 10 nM.

`Cc1cc(C)cc(Nc2nc(NC[C@H](C)N)[nH]c(=O)c2C(N)=O)c1` [Example 54, (S)-2-(2-aminopropylamino)-4-(3,5-dimethylphenylamino)-6-oxo-1,6-dihydropyrimidine-5-carboxamide]: the half-maximal inhibitory concentration (IC50) was greater than 1000 nM.

In the case of `CC(C)C[C@@H](Nc1nc(Nc2ccc3cn[nH]c3c2)c(C(N)=O)c(=O)[nH]1)C(N)=O` [Example 35, (R)-4-(1H-indazol-6-ylamino)-2-(1-amino-4-methyl-1-oxopentan-2-ylamino)-6-oxo-1,6-dihydropyrimidine-5-carboxamide], the IC50 is less than 1 nM.

Consider `CC(C)C[C@@H](Nc1nc(Nc2cnn(C)c2)c(C(N)=O)c(=O)[nH]1)C(N)=O` [Example 114, (R)-2-(1-amino-4-methyl-1-oxopentan-2-ylamino)-4-(1-methyl-1H-pyrazol-4-ylamino)-6-oxo-1,6-dihydropyrimidine-5-carboxamide], for which the IC50 lay within 1 to 10 nM.

As for `CC[C@@H](Nc1nc(Nc2ccc(-n3ccnc3)cc2)c(C(N)=O)c(=O)[nH]1)C(N)=O` [Example 116, (R)-2-(1-amino-1-oxobutan-2-ylamino)-4-(4-(1H-imidazol-1-yl)phenylamino)-6-oxo-1,6-dihydropyrimidine-5-carboxamide], the IC50 was 1 to 10 nM.

As for `COc1nc(Nc2ccc(N3CCOCC3)cc2)nc(NC2CC2)c1C(N)=O` [Example 73, 4-(cyclopropylamino)-6-methoxy-2-(4-morpholinophenylamino)pyrimidine-5-carboxamide], the IC50 is greater than 1000 nM.

Take `CC[C@@H](Nc1nc(Nc2cccc(C)c2)c(C(N)=O)c(=O)[nH]1)C(N)=O` [Example 11, (R)-2-(1-amino-1-oxobutan-2-ylamino)-6-oxo-4-(m-tolylamino)-1,6-dihydropyrimidine-5-carboxamide]: the 50% inhibitory concentration (IC50) was in the range of 1 to 10 nM.

`CC[C@@H](Nc1nc(Nc2ccc3ncsc3c2)c(C(N)=O)c(=O)[nH]1)C(N)=O` [Example 31]: the IC50 is less than 1 nM.

For the compound `COc1nc(Nc2ccc(N3CCOCC3)cc2)nc(Nc2cccc(C)c2)c1C(N)=O` [Example 70, 4-(m-toluidino)-6-methoxy-2-(4-morpholinophenylamino)pyrimidine-5-carboxamide], the IC50 is greater than 1000 nM.

Regarding `CC(C)[C@@H](Nc1nc(Nc2ccc3ncsc3c2)c(C(N)=O)c(=O)[nH]1)C(N)=O` [Example 30], the IC50 was less than 1 nM.

On to `CC(=O)N1CCN(c2ccc(Nc3nc(Nc4ccc(N5CCN(C(C)=O)CC5)cc4)c(C(N)=O)c(=O)[nH]3)cc2)CC1` [Example 46, 2,4-bis(4-(4-acetylpiperazin-1-yl)phenylamino)-6-oxo-1,6-dihydropyrimidine-5-carboxamide], for which the IC50 is greater than 1000 nM.

For the compound `NC(=O)c1c(Nc2ccc(S(N)(=O)=O)cc2)nc(NC2CC2)[nH]c1=O` [Example 42, 2-(cyclopropylamino)-6-oxo-4-(4-sulfamoylphenylamino)-1,6-dihydropyrimidine-5-carboxamide], the IC50 is 10 to 100 nM.

Consider `CC(C)[C@@H](Nc1nc(Nc2cccc(-c3ccccn3)c2)c(C(N)=O)c(=O)[nH]1)C(N)=O` [Example 96, (R)-2-(1-amino-3-methyl-1-oxobuan-2-ylamino)-6-oxo-4-(3-(pyridin-2-yl)phenylamino)-1,6-dihydropyrimidine-5-carboxamide], for which the IC50 fell in the range of 1 to 10 nM.
